Laboratory results: US12545665B2, “Crystal form of 6-(cyclopropanecarboxamido)-4-((2-methoxy-3-(1-methyl-1H-1,2,4-triazol-3-yl)phenyl)amino)-n-(methyl-d3) pyridazine-3-carboxamide” (Bristol-Myers Squibb Company, priority 2017, dated 2026)

Legend:
Assay type in all cases: physicochemical
[1] = Chemical stability (% Assay) of micronized Form A stored at different temperature and humidity conditions
Procedure: Samples of micronized Form A of Compound (I) were stored at different conditions of temperature and humidity for 4 weeks. The physical stability, characterized by DSC, TGA, and PXRD, were measured at 2 and 4 weeks.

[2] = Moisture-sorption isotherm (VTI)
Procedure: Form A of Compound (I) is non-hygroscopic with less than 0.1 weight % gain between 25 to 75% relative humidity at 25° C.
Moisture-sorption isotherms were collected in a TA Instrument VTI-SA+ Vapor Sorption Analyzer using approximately 10 mg of sample. The sample was dried at 60° C. until the loss rate of 0.0005 wt %/min was obtained for 10 minutes. The sample was tested at 25° C. and 3 or 4, 5, 15, 25, 35, 45, 50, 65, 75, 85, and 95% relative humidity (RH). Equilibration at each relative humidity was reached when the rate of 0.0003 wt %/min for 35 minutes was achieved or a maximum of 600 minutes.

[3] = Physical stability on storage, characterized by DSC, TGA and PXRD; conditions: samples stored for 4 weeks at different conditions of temperature and humidity, TGA, PXRD
Procedure: X-ray powder diffraction (PXRD) data were obtained using a Bruker C2 GADDS with Vantec-500 detector. The radiation was Cu Kα (40 KV, 40 mA). The sample-detector distance was […]. Incident optics include Goebel mirror and 0.3 mm collimator. Powder samples were placed in sealed glass capillaries of 1 mm or less in diameter; the capillary was rotated during data collection. Data were collected for 2≤2θ≤35° with a sample exposure time of at least 1000 seconds. The resulting two-dimensional diffraction arcs were integrated to create a traditional 1-dimensional PXRD pattern with a step size of 0.05 degrees 2θ in the range of ˜2 to ˜30 degrees 2θ.
Differential scanning calorimetry (DSC) experiments were performed in a TA Instruments™ model Q2000. The sample (about 2-6 mg) was weighed in an aluminum pan and recorded accurately recorded to a hundredth of a milligram, and transferred to the DSC. […] Data were collected between room temperature and 300° C. at 10° C./min heating rate. The plot was made with the endothermic peaks pointing down.
Thermal gravimetric analysis (TGA) experiments were performed in a TA Instruments™ model Q5000. The sample (about 10-30 mg) was placed in a platinum pan previously tared. […] The furnace was purged with nitrogen gas at 100 mL/min. Data were collected between room temperature and 300° C. at 10° C./min heating rate.

[4] = at the tested temperature and humidity conditions

Structure (SMILES): [2H]C([2H])([2H])NC(=O)c1nnc(NC(=O)C2CC2)cc1Nc1cccc(-c2ncn(C)n2)c1OC [Form A of Compound (I), 6-(cyclopropanecarboxamido)-4-((2-methoxy-3-(1-methyl-1H-1,2,4-triazol-3-yl)phenyl)amino)-N-(methyl-d3)pyridazine-3-carboxamide]
- % Assay ([1]; High Intensity Light/UV, 2 weeks): 99.3%
- % Assay ([1]; High Intensity Light/UV, 4 weeks): 99.2%
- Impurity profiles [1, 4]: remain unchanged
- Physical or chemical degradation [1, 4]: no significant physical or chemical degradation
- Change in chemical stability ([1]; samples of Table 2, stored up to 4 weeks): no measure change in chemical stability
- % Assay ([1]; stored at 5° C. (control), 2 weeks): 99.2%
- % Assay ([1]; stored at 5° C. (control), 4 weeks): 99.2%
- % Assay ([1]; stored at 25° C./60% relative humidity (closed), 2 weeks): 99.2%
- % Assay ([1]; stored at 25° C./60% relative humidity (closed), 4 weeks): 99.2%
- % Assay ([1]; stored at 40° C./75% relative humidity (open), 2 weeks): 99.2%
- % Assay ([1]; stored at 40° C./75% relative humidity (open), 4 weeks): 99.2%
- % Assay ([1]; stored at 50° C., 2 weeks): 99.2%
- % Assay ([1]; stored at 50° C., 4 weeks): 99.2%
- Weight gain ([2]; between 25 to 75% relative humidity at 25° C.): less than 0.1 weight %
- Hygroscopicity ([2]; moisture sorption isotherm at 25° C.): non-hygroscopic
- Change in physical form [3]: No change in the physical form was detected
